EC50 data for 24 molecules are collected here from patent publication US20240199613A1 (TAKEDA PHARMACEUTICAL COMPANY LIMITED, priority 2021, published 2024).

A value given as a limit tells only on which side of the number the result lay.

The target in the assay is human activated kallikrein enzyme (Homo sapiens, UniProt P03952). Description: Inhibition of activated plasma kallikrein, fluorogenic peptide substrate (PFR-AMC) assay, 500 pM enzyme format. Type of assay: biochemical. The following applies: 500 pM activated kallikrein, 300 uM PFR-AMC, 30 min preincubation, 10 min reaction, room temperature; read-out: Primary Dose Response Assay: Average EC50. How it is done: Compounds were evaluated for inhibition of the human activated kallikrein enzyme in two formats of an assay employing a fluorogenic peptide substrate. In one assay format, the concentrations of reagents were as follows: 20 mM Tris pH 7.5, 1 mM EDTA, 150 mM sodium chloride, 0.1% PEG-400, 0.1% Triton X-100, 500 pM activated kallikrein enzyme, 300 uM Pro-Phe-Arg-7-amido-4-methylcoumarin (PFR-AMC) substrate. Prior to reaction initiation with substrate, enzyme and inhibitors were preincubated for 30 min at room temperature. After initiation with substrate, reactions were incubated for 10 min at room temperature and fluorescence emission at 460 nm from 380 nm excitation measured with a microplate reader. In another assay format, the concentrations of reagents were as follows: 20 mM Tris pH 7.5, 1 mM EDTA, 150 mM sodium chloride, 0.1% PEG-400, 0.1% Triton X-100, 5 pM activated kallikrein enzyme, 300 uM PFR-AMC substrate. Prior to reaction initiation with substrate, enzyme and inhibitors were preincubated for 30 min at room temperature. After initiation with substrate, reactions were incubated for 18 hr at room temperature and fluorescence emission at 460 nm from 380 nm excitation measured with a microplate reader.
Table 6 provides the results of the assay in the format with 500 pM activated kallikrein assay.

Chain of human activated kallikrein enzyme (P03952 391-638 limits assumed): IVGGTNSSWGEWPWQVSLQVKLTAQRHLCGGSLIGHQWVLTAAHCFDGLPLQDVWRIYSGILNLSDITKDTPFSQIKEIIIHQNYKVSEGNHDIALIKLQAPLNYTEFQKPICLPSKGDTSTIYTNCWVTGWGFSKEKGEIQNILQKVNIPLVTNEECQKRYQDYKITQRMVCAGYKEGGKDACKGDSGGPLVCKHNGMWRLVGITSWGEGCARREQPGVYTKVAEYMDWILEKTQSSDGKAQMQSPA
Chain of human activated kallikrein enzyme (P03952 20-390 partner limits assumed): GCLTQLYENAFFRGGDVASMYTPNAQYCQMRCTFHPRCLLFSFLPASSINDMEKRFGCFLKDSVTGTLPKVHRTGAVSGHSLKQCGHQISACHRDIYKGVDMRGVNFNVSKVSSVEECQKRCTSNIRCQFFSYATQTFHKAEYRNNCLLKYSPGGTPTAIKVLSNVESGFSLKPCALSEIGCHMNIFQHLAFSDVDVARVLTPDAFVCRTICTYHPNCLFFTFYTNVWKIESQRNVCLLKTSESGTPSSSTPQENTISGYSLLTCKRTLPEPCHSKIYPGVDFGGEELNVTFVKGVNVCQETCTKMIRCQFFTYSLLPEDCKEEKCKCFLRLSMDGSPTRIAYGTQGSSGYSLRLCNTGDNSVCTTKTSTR

Turning to `Cc1ccnc([C@H]2C[C@@H]2c2cnc3ccc(NCc4cn5cc(C6CC6)cc(N6CC(=O)N(C)C6=O)c5n4)cc3c2)n1` (racemic) [Example 24, rac-1-(6-cyclopropyl-2-(((3-((1S*,2S*)-2-(4-methylpyrimidin-2-yl)cyclopropyl)quinolin-6-yl)amino)methyl)imidazo[1,2-a]pyridin-8-yl)-3-methylimidazolidine-2,4-dione], the EC50 is 100 to 6500 nM.
Regarding `Cc1ccnc([C@H]2C[C@@H]2c2ccc3ncn(Cc4cn5cc(C6CC6)cc(N6CC(=O)N(C)C6=O)c5n4)c3n2)n1` (racemic) [Example 71, rac-1-(6-cyclopropyl-2-((5-((1S*,2S*)-2-(4-methylpyrimidin-2-yl)cyclopropyl)-3H-imidazo[4,5-b]pyridin-3-yl)methyl)imidazo[1,2-a]pyridin-8-yl)-3-methylimidazolidine-2,4-dione], the EC50 is greater than 6500 nM.
Take `Cc1ccnc([C@H]2C[C@@H]2c2ccc3ccc(NCc4cn5cc(C6CC6)cc(N6C(=O)N(C)C(=O)C6C6(O)COC6)c5n4)cc3n2)n1` (relative stereo) [Example 90, rac-1-(6-cyclopropyl-2-(((2-((1S*,2S*)-2-(4-methylpyrimidin-2-yl)cyclopropyl)quinolin-7-yl)amino)methyl)imidazo[1,2-a]pyridin-8-yl)-5-(3-hydroxyoxetan-3-yl)-3-methylimidazolidine-2,4-dione]: the EC50 fell in the range of 1 to 10 nM.
With `Clc1cccc([C@H]2C[C@@H]2c2nc3ncncc3n2Cc2cn3cc(C4CC4)ccc3n2)c1` [Example 44, 8-((1S,2S)-2-(3-chlorophenyl)cyclopropyl)-7-((6-cyclopropylimidazo[1,2-a]pyridin-2-yl)methyl)-7H-purine], the EC50 is greater than 6500 nM.
For `Clc1cccc([C@H]2C[C@@H]2c2nc3ccc(NCc4cn5cc(C6CC6)ccc5n4)cc3[nH]2)c1` [Example 45, 2-((1S,2S)-2-(3-chlorophenyl)cyclopropyl)-N-((6-cyclopropylimidazo[1,2-a]pyridin-2-yl)methyl)-1H-benzo[d]imidazol-6-amine], the EC50 was greater than 6500 nM.
Next, `Cc1ccnc([C@H]2C[C@@H]2c2ccc3ccc(NCc4cn5cc(C6CC6)ccc5n4)cc3n2)n1` (racemic) [Example 19, rac-N-((6-cyclopropylimidazo[1,2-a]pyridin-2-yl)methyl)-2-((1S*,2S*)-2-(4-methylpyrimidin-2-yl)cyclopropyl)quinolin-7-amine]: 1 to 10 nM; `Cc1ccnc([C@H]2C[C@@H]2c2ccc3ncc(NCc4cn5cc(C6CC6)cc(N6CC(=O)N(C)C6=O)c5n4)cc3c2)n1` (racemic) [Example 16, rac-1-(6-Cyclopropyl-2-(((6-((1S*,2S*)-2-(4-methylpyrimidin-2-yl)cyclopropyl)quinolin-3-yl)amino)methyl)imidazo[1,2-a]pyridin-8-yl)-3-methylimidazolidine-2,4-dione]: 100 to 6500 nM.
To `O=c1cc(C2C[C@@H]2c2cccc(Cl)c2)[nH]c2cc(NCc3cn4cc(C5CC5)ccc4n3)ccc12` (mixture of isomers) [Example 49, rac-2-((1S*,2S*)-2-(3-chlorophenyl)cyclopropyl)-7-(((6-cyclopropylimidazo[1,2-a]pyridin-2-yl)methyl)amino)quinolin-4 (1H)-one] belongs 1 to 10 nM.
In the case of `CN1C(=O)CN(c2cc(C3CC3)cn3cc(CNc4ccc5ccc([C@H]6C[C@@H]6c6cc(Cl)ccc6C#N)nc5c4)nc23)C1=O` (racemic) [Example 83, rac-4-chloro-2-((1S*,2S*)-2-(7-(((6-cyclopropyl-8-(3-methyl-2,4-dioxoimidazolidin-1-yl)imidazo[1,2-a]pyridin-2-yl)methyl)amino)quinolin-2-yl)cyclopropyl)benzonitrile], the EC50 is 1 to 10 nM.
`COc1cc([C@H]2C[C@@H]2c2cccc(Cl)c2)nc2cc(NCc3cn4cc(C5CC5)ccc4n3)ccc12` (racemic) [Example 48, rac-2-((1S*,2S*)-2-(3-chlorophenyl)cyclopropyl)-N-((6-cyclopropylimidazo[1,2-a]pyridin-2-yl)methyl)-4-methoxyquinolin-7-amine]: the EC50 fell in the range of 10 to 100 nM.
As for `COc1cc([C@H]2C[C@@H]2c2cccc(Cl)c2)nc2cc(NCc3cn4cc(C5CC5)cc(N5CC(=O)N(C)C5=O)c4n3)ncc12` [Example 18, 1-(2-(((2-((1S,2S)-2-(3-chlorophenyl)cyclopropyl)-4-methoxy-1,6-naphthyridin-7-yl)amino)methyl)-6-cyclopropylimidazo[1,2-a]pyridin-8-yl)-3-methylimidazolidine-2,4-dione], the EC50 was 10 to 100 nM.
For the molecule `Cc1ccnc([C@@H]2C[C@H]2c2ccc3ccc(NCc4cn5cc(C6CC6)cc(N6CC(=O)N(C)C6=O)c5n4)cc3n2)n1` (single isomer, unassigned) [Example 58], the EC50 is 10 to 100 nM.
As for `Cc1ccnc([C@H]2C[C@@H]2c2cc(C#N)c3ccc(NCc4cn5cc(C6CC6)cc(N6CC(=O)N(C)C6=O)c5n4)cc3n2)n1` (racemic) [Example 73, rac-7-(((6-cyclopropyl-8-(3-methyl-2,4-dioxoimidazolidin-1-yl)imidazo[1,2-a]pyridin-2-yl)methyl)amino)-2-((1S*,2S*)-2-(4-methylpyrimidin-2-yl)cyclopropyl)quinoline-4-carbonitrile], the EC50 lay within 10 to 100 nM.
Turning to `O[C@H]1C[C@H](c2cn3cc(C4CC4)ccc3n2)N(c2cc3[nH]c([C@H]4C[C@@H]4c4cccc(Cl)c4)c(F)c3cn2)C1` (relative stereo) [Example 56, rac-(3S,5R)-1-(2-((1S*,2S*)-2-(3-chlorophenyl)cyclopropyl)-3-fluoro-1H-pyrrolo[3,2-c]pyridin-6-yl)-5-(6-cyclopropylimidazo[1,2-a]pyridin-2-yl)pyrrolidin-3-ol], the EC50 was greater than 6500 nM.
Regarding `Cc1ccnc([C@H]2C[C@@H]2c2ccc3cccc(NCc4cn5cc(C6CC6)cc(N6CC(=O)N(C)C6=O)c5n4)c3n2)n1` (racemic) [Example 70, rac-1-(6-cyclopropyl-2-(((2-((1S*,2S*)-2-(4-methylpyrimidin-2-yl)cyclopropyl)quinolin-8-yl)amino)methyl)imidazo[1,2-a]pyridin-8-yl)-3-methylimidazolidine-2,4-dione], the EC50 is greater than 6500 nM.
For `Cc1ccnc([C@H]2C[C@@H]2c2ccc3c(ncn3Cc3cn4cc(C5CC5)cc(N5CC(=O)N(C)C5=O)c4n3)n2)n1` (racemic) [Example 72, rac-1-(6-cyclopropyl-2-((5-((1S*,2S*)-2-(4-methylpyrimidin-2-yl)cyclopropyl)-1H-imidazo[4,5-b]pyridin-1-yl)methyl)imidazo[1,2-a]pyridin-8-yl)-3-methylimidazolidine-2,4-dione], the EC50 is 100 to 6500 nM.
Next, `O=c1[nH]c([C@H]2C[C@@H]2c2cccc(Cl)c2)nc2cc(NCc3cn4cc(C5CC5)ccc4n3)ncc12` [Example 2, 2-((1S,2S)-2-(3-chlorophenyl)cyclopropyl)-7-(((6-cyclopropylimidazo[1,2-a]pyridin-2-yl)methyl)amino)pyrido[4,3-d]pyrimidin-4 (3H)-one]: 10 to 100 nM; `O=c1nc([C@H]2C[C@@H]2c2cccc(Cl)c2)[nH]c2cc(NCc3cn4cc(C5CC5)ccc4n3)ccc12` [Example 50, 2-((1S,2S)-2-(3-chlorophenyl)cyclopropyl)-7-(((6-cyclopropylimidazo[1,2-a]pyridin-2-yl)methyl)amino)quinazolin-4 (1H)-one]: 10 to 100 nM; `COCc1cc([C@H]2C[C@@H]2c2nccc(C)n2)nc2cc(NCc3cn4cc(C5CC5)cc(N5CC(=O)N(C)C5=O)c4n3)ccc12` (racemic) [Example 76, rac-1-(6-cyclopropyl-2-(((4-(methoxymethyl)-2-((1S*,2S*)-2-(4-methylpyrimidin-2-yl)cyclopropyl)quinolin-7-yl)amino)methyl)imidazo[1,2-a]pyridin-8-yl)-3-methylimidazolidine-2,4-dione]: no more than 1 nM.
`Cc1ccnc([C@H]2C[C@@H]2c2nc3cc(NCc4cn5cc(C6CC6)ccc5n4)ccc3c(=O)[nH]2)n1` (relative stereo) [Example 3]: the EC50 is 1 to 10 nM.
To `Cc1ccnc([C@@H]2C[C@H]2C2=NS(=O)(=O)c3ccc(NCc4cn5cc(C6CC6)ccc5n4)cc3N2)n1` (single isomer, unassigned) [Example 66] belongs 10 to 100 nM.
With `COc1cc([C@H]2C[C@@H]2c2cccc(Cl)c2)nc2cc(NCc3cn4cc(C5CC5)cc(N5CCCC5=O)c4n3)ccc12` (racemic) [Example 4, rac-1-(2-(((2-((7S*,2S*)-2-(3-chlorophenyl)cyclopropyl)-4-methoxyquinolin-7-yl)amino)methyl)-6-cyclopropylimidazo[1,2-a]pyridin-8-yl)pyrrolidin-2-one], the EC50 was in the range of 10 to 100 nM.
`Cc1ccnc([C@H]2C[C@@H]2C2=NS(=O)(=O)c3ccc(NCc4cn5cc(C6CC6)ccc5n4)cc3N2C)n1` [Example 94, 6-(((6-cyclopropylimidazo[1,2-a]pyridin-2-yl)methyl)amino)-4-methyl-3-((1S,2S)-2-(4-methylpyrimidin-2-yl)cyclopropyl)-4H-benzo[e][1,2,4]thiadiazine 1,1-dioxide]: the EC50 lay within 100 to 6500 nM.
On to `Clc1cccc([C@H]2C[C@@H]2c2nc3cccc(NCc4cn5cc(C6CC6)ccc5n4)c3[nH]2)c1` [Example 46, 2-((1S, 2S)-2-(3-chlorophenyl)cyclopropyl)-N-((6-cyclopropylimidazo[1,2-a]pyridin-2-yl)methyl)-1H-benzo[d]imidazol-7-amine], for which the EC50 is greater than 6500 nM.
